Measured values: US20230102554A1 (GB002, INC., priority 2019, published 2023)

Assays:
[1] = biological target: T1, Human PDGFRβ, cytoplasmic domain (GST-PDGFRβ) (Homo sapiens, UniProt P09619); assay: Human PDGFRβ biochemical inhibition assay (off-chip Mobility Shift Assay)
T1 construct: made in house
Outline: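 GST-tagged cytoplasmic domain (aa 557-1106) from baculovirus was incubated 1 h at room temperature with compound, CSKtide, ATP at Km and Mg²⁺ in HEPES buffer, pH 7.5. Phosphorylated and unphosphorylated peptide were separated by off-chip mobility shift, and the product ratio P/(P+S) gave percent inhibition.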

[2] = biological target: T2, Human PDGFRα, cytoplasmic domain (GST-PDGFRα) (Homo sapiens, UniProt P16234); assay: Human PDGFRα biochemical inhibition assay (off-chip Mobility Shift Assay)
T2 construct: made in house
T2 sequence (P16234 550-1089 T674I): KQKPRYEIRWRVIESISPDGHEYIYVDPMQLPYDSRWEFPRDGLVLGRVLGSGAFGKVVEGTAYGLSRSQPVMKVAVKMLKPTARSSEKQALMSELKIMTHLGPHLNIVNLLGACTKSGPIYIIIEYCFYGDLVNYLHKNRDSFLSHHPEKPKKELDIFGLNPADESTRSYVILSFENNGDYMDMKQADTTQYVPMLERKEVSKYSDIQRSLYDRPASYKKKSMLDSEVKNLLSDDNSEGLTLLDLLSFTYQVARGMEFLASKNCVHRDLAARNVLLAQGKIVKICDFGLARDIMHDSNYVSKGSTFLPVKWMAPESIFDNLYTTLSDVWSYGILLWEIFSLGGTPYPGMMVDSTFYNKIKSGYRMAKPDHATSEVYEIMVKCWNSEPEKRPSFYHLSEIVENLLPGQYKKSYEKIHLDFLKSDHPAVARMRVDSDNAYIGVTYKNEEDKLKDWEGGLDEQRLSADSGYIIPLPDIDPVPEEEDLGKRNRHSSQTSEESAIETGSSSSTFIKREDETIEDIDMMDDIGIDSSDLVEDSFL

T1 sequence (P09619 with tags, fused parts or gaps): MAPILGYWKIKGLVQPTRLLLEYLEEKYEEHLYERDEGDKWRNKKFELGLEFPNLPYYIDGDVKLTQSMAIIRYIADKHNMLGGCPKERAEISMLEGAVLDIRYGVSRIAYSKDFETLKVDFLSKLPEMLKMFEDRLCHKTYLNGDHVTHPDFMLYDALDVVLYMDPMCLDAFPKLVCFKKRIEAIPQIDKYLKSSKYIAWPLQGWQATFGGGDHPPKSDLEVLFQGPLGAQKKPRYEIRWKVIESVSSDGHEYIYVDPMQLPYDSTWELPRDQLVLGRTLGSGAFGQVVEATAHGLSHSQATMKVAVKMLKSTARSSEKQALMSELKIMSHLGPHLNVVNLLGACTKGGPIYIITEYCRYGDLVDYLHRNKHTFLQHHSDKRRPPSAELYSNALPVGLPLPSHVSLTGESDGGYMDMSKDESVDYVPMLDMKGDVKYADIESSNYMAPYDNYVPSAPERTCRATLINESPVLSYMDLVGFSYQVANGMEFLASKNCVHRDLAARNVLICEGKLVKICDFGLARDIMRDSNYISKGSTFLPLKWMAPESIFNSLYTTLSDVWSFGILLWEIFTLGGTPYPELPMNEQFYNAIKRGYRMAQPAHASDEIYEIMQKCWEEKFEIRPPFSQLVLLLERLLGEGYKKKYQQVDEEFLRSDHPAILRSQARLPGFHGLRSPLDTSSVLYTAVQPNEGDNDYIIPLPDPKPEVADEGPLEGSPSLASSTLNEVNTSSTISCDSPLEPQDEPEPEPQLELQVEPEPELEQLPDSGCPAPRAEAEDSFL

IC50 [1]: < 300 nM | IC50 [2]: < 300 nM
SMILES: CCn1cc2ncc(N[C@@H](C)c3cccc(NC(=O)c4cnc5c(c4)CCC5)c3)nc2n1 [Compound 58, (S)-N-(3-(1-((2-ethyl-2H-pyrazolo[3,4-b]pyrazin-6-yl)amino)ethyl)phenyl)-6,7-dihydro-5H-cyclope3nta[6] pyridine-3-carboxamide]
